Data taken from patent US12161723B2, “Water-based cannabinoid and opioid compositions” (DAY THREE LABS MAN[…]., priority 2014, dated 2024).

Tests used:
[1] = biological target: T1, bovine serum albumin (BSA) (Bos taurus, UniProt P02769); assay: Cannabis smoke bubbled through aqueous BSA solution, cannabinoids determined by HPLC (Example 1a); type: binding; conditions: BSA in Hartmann's solution; FIG. 2A
T1 construct: purchased Millipore, USA
Protocol: Protein-bound cannabinoid was formed according to the following method. An aqueous albumin solution was prepared by adding 20 (mg)) of bovine serum albumin (BSA, from Millipore, USA) to 10 milliliters (ml) ml Hartmann's solution (B. Braun Melsungen AG, Germany). BSA was completely dissolved using a shaker (Heidolph POLYMAX 1040) at 50 revolutions per minute.
A cannabis-filled cigarette was formed using a cigarette paper containing 0.8 gr ground cannabis (provided by “Seach” Israel), from flowers and budding leaves. A Pasteur pipette was cut longitudinally at its wide end, and the cigarette was lodged in to the cut end. The narrow end of the pipette was attached to a syringe. The cigarette was lit in a fume hood, and cigarette smoke was collected in the syringe by pulling the syringe plunger. The smoke was then slowly released into the BSA solution by depressing the plunger. Approximately 350 ml of smoke-containing air was gently bubbled through the BSA solution.
As a control, a solution of 10 ml of Hartmann's solution was prepared without the addition of BSA and a similar procedure of cannabis smoke formation and bubbling was performed.
Samples having a volume of 3 ml of the BSA solution and the control solution were each inserted in to HPLC glass vials and the open vials were inserted into a vacuum oven for 24 hours at 37° Celsius.
The solid phase after the evaporation was crushed in to a fine powder using mortar and pestle. The powder was extracted using Methanol chloroform 9:1 extract solution, sonicated for 30 minutes, and was then filtered and added in to an HPLC testing tube.
HPLC was performed using an HP1050 AGILENT, DAD detector, XBridge C18 3.5 μm 4.6×150 mm column, and according to the following parameters: […]

BSA [2] = biological target: T2, BSA (Bos taurus, UniProt P02769); assay: Cannabis smoke/vapor passed through BSA/water/ethanol solution, cannabinoid profile (Example 1d); type: binding, bovine; conditions: 33% ethanol, 48 hours incubation, washed
T2 sequence (P02769 25-607): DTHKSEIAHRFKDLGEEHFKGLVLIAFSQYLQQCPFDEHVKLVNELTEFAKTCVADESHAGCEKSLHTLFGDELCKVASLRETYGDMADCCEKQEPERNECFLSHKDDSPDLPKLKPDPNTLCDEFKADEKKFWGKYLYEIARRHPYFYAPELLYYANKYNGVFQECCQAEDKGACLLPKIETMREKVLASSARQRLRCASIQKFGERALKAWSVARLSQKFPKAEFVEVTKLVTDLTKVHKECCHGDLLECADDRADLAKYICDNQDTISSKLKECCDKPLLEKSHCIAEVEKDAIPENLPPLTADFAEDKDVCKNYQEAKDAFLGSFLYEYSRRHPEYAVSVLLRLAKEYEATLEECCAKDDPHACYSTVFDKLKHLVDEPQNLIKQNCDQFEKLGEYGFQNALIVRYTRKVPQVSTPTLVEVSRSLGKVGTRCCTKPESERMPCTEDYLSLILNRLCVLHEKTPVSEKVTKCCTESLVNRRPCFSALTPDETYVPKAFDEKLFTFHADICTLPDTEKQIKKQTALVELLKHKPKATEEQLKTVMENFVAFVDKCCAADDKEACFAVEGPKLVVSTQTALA
Protocol: (§1) To show which cannabinoid compounds are solubilized in processes using BSA versus organic solvents, cannabis from two different batches was smoked and or vaporized. Vapor was formed using a “volcano” vaporizer at a temperature of 210° C. The smoke/vapor was passed through either a BSA/water/ethanol solution described in example 1b, comprising 33% by volume ethanol or through a pure ethanol (99% ethanol) solution. Solutions were stirred using a magnetic stirrer and were incubated for 48 hours, during which time, most of the ethanol evaporated. One of the batches of cannabis was high in THC, and the other batch of cannabis was high in both THC and CBD.
The BSA/water/ethanol solution was washed after smoke or vapor was combined with it, and the amount of cannabinoids present was analyzed. The results of the comparison of relative concentration of cannabinoids (relative to total cannabinoid content) as expressed in percent (weight/weight), for a strain of cannabis high in THC are shown in the table below.

[3] = Cannabis smoke/vapor passed through pure ethanol, cannabinoid profile (Example 1d); type: physicochemical; conditions: for relative concentration of cannabinoids (relative to total cannabinoid content), Vapor passed through ethanol: vapor at 210° C.
Protocol: as §1

bovine γ-globulin = assay: Cannabis vapor streamed through protein solution, cannabinoids adsorbed (Example 1f); type: binding; conditions: vapor of cannabis high in CBD; 1 mg/ml protein, ethanol:water 1:2, 30° C., 24 hours
Protocol: (§2) The protein solutions were formed using ethanol and water in a 1:2 ratio. The solutions were incubated at 30° C. for 24 hours.

[4] = biological target: T3, rice recombinant human serum albumin (HSA) (Homo sapiens, UniProt P02768); assay: as above; type: binding; conditions: vapor of cannabis high in CBD; 1 mg/ml protein, ethanol:water 1:2, 30° C., 24 hours
T3 construct: host or cells: rice (recombinant expression host)
T3 sequence (P02768 25-609): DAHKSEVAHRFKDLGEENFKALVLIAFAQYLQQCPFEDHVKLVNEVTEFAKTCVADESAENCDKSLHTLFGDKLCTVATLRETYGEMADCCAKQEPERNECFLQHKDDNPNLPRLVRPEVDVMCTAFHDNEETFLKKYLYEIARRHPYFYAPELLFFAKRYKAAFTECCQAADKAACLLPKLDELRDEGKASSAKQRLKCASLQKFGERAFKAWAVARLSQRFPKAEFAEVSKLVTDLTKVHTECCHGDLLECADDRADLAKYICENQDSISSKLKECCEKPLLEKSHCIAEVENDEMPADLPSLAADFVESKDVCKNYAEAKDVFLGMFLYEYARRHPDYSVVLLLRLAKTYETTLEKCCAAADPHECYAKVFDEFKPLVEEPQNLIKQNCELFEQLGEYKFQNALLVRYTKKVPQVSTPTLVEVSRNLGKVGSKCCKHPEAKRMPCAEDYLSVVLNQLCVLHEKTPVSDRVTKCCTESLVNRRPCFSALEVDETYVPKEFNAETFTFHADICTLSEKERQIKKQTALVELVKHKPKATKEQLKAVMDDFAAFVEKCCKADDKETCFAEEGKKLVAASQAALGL
Protocol: as §2

[5] = Cannabinoid content of cannabis extract (Example 2a); type: physicochemical; conditions: methanol/chloroform 9:1 cannabis extract
Protocol: (§3) Cannabis extract was prepared as follows: In short, cannabis plant matter is dried, ground and homogenized to form ground cannabis. The ground cannabis is extracted with methanol/chloroform (volume/volume ratio of 9:1). Sonication and filtration is then performed. Identity of cannabinoids is determined by HPLC by evaporation, dissolution in an appropriate solvent.
(§4) Drying of the cannabis plant matter occurs under high vacuum at about 37±2° C. for about 24 hours and then ground to form a fine powder. 200 mg of ground powder is combined with 10 ml of methanol/chloroform, and sonicated in an ice bath for 30 minutes at maximum power. The supernatant is then filtered through a 0.2 micron filter.
(§5) A sample of the cannabis extract was analyzed for content of cannabinoids. The cannabis extract was then combined with albumin solution having 20% ethanol at 10 mg/ml (BSA) and incubated for 2 hours at room temperature.

BSA [6] = biological target: T2, BSA; assay: Cannabis extract combined with albumin solution, cannabinoids adsorbed to BSA (Example 2a); type: binding, bovine; conditions: albumin solution 10 mg/ml (BSA) with 20% ethanol, 2 hours at room temperature
Protocol: as §3, §4, §5

albumin (BSA) = albumin (BSA) (Bos taurus, UniProt P02769); assay: Ethanolic cannabinoid solution mixed with aqueous albumin, protein-bound cannabinoid quantified (Example 2b); type: binding, bovine; parameters: protein-bound cannabinoid quantified, Vapor: unit not given beside the values; conditions: 100 microliters ethanolic solution + 500 microliters 5 mg/ml BSA, 30° C., 12 hours, non-adsorbed cannabinoids separated
albumin (BSA), sequence (P02769 25-607): as the sequence (P02769 25-607) above
Protocol: 100 microliters of ethanolic cannabinoid solution from cannabis vapor and cannabis smoke were each mixed with 500 microliters of aqueous albumin solution that had been prepared at a concentration of 5 mg albumin (BSA)/ml. The aqueous albumin solution combined with the ethanolic cannabinoid solution was incubated at 30° C. for 12 hours in open tubes. After 12 hours, the tubes were mixed and centrifuged, and non-adsorbed cannabinoids were separated from the solution. Concentrated protein-bound cannabinoid was dried and quantified as described below.

[7] = 3 g high THC strain; 200 ml ethanol concentrated to about 3 ml
ovalbumin (hen) = biological target: T4, ovalbumin (hen) (Gallus gallus, UniProt P01012); assay: Cannabis vapor streamed through protein solution, cannabinoids adsorbed (Example 1f); type: binding; conditions: vapor of cannabis high in CBD; 1 mg/ml protein, ethanol:water 1:2, 30° C., 24 hours
T4 sequence (P01012 1-386): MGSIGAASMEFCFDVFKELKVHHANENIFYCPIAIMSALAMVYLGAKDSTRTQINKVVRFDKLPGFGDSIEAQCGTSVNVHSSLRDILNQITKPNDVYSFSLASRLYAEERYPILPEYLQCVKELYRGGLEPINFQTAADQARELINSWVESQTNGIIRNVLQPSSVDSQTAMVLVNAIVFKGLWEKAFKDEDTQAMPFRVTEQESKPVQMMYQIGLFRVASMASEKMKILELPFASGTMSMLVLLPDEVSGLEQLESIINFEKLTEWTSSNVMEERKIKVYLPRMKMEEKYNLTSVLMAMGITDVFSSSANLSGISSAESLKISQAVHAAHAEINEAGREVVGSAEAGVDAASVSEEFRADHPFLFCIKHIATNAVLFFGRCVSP
Protocol: as §2

[8] = strain of cannabis high in CBD and THC

T1 sequence (P02769 25-607): as the sequence (P02769 25-607) above

SMILES: CCCCCc1cc(O)c2c(c1)OC(C)(CCC=C(C)C)C=C2 (centres unmarked) [CBC, cannabichromene]
- active cannabinoids found by HPLC in BSA aqueous solution after cannabis smoke was introduced [1]: dissolved in the solution
- relative concentration of cannabinoids (relative to total cannabinoid content), Smoke passed through BSA/water/ethanol (BSA [2]; [8]): 0.0 percent (weight/weight)
- relative concentration of cannabinoids (relative to total cannabinoid content), Smoke passed through BSA/water/ethanol (BSA [2]; strain of cannabis high in THC): 0.0 percent (weight/weight)
- relative concentration of cannabinoids (relative to total cannabinoid content), Smoke passed through ethanol [3, 8]: 3.1 percent (weight/weight)
- relative concentration of cannabinoids (relative to total cannabinoid content), Vapor passed through ethanol [3, 8]: 3.8 percent (weight/weight)
- relative concentration of cannabinoids (relative to total cannabinoid content), Smoke passed through ethanol ([3]; strain of cannabis high in THC): 1.3 percent (weight/weight)
- relative concentration of cannabinoids (relative to total cannabinoid content), Vapor passed through ethanol ([3]; strain of cannabis high in THC): 0.0 percent (weight/weight)
- percentage of each cannabinoid relative to total cannabinoids adsorbed to protein, Bovine γ-globulin (bovine γ-globulin): 0 percentage
- percentage of each cannabinoid relative to total cannabinoids adsorbed to protein, Rice recombinant HSA [4]: 0 percentage
- percentage of each cannabinoid relative to total cannabinoids, Extract [5]: 1 percentage
- percentage of each cannabinoid relative to total cannabinoids adsorbed to protein, Adsorbed to BSA after extract combined with BSA solution (BSA [6]): 3 percentage
- protein-bound cannabinoid quantified, Smoke (albumin (BSA)): 2.13
- protein-bound cannabinoid quantified, Vapor (albumin (BSA)): 1.845
- amount of cannabinoids dissolved in ethanol, Smoke [7]: 90.873 micrograms/ml
- amount of cannabinoids dissolved in ethanol, Vapor [7]: 54.7468 micrograms/ml

SMILES: CCCCCc1cc(O)c(C/C=C(\C)CCC=C(C)C)c(O)c1C(=O)O [CBGA, cannabigerolic acid]
- relative concentration of cannabinoids (relative to total cannabinoid content), Smoke passed through BSA/water/ethanol (BSA [2]; [8]): 0.0 percent (weight/weight)
- relative concentration of cannabinoids (relative to total cannabinoid content), Vapor passed through BSA/water/ethanol (BSA [2]; [8]): 0.0 percent (weight/weight)
- relative concentration of cannabinoids (relative to total cannabinoid content), Smoke passed through BSA/water/ethanol (BSA [2]; strain of cannabis high in THC): 0.0 percent (weight/weight)
- relative concentration of cannabinoids (relative to total cannabinoid content), Smoke passed through ethanol [3, 8]: 0.4 percent (weight/weight)
- relative concentration of cannabinoids (relative to total cannabinoid content), Vapor passed through ethanol [3, 8]: 0.0 percent (weight/weight)
- relative concentration of cannabinoids (relative to total cannabinoid content), Smoke passed through ethanol ([3]; strain of cannabis high in THC): 0.6 percent (weight/weight)
- relative concentration of cannabinoids (relative to total cannabinoid content), Vapor passed through ethanol ([3]; strain of cannabis high in THC): 0.1 percent (weight/weight)
- percentage of each cannabinoid relative to total cannabinoids adsorbed to protein, Bovine γ-globulin (bovine γ-globulin): 0 percentage
- percentage of each cannabinoid relative to total cannabinoids adsorbed to protein, Ovalbumin (ovalbumin (hen)): 0 percentage
- percentage of each cannabinoid relative to total cannabinoids adsorbed to protein, Rice recombinant HSA [4]: 0 percentage
- percentage of each cannabinoid relative to total cannabinoids, Extract [5]: 3 percentage
- percentage of each cannabinoid relative to total cannabinoids adsorbed to protein, Adsorbed to BSA after extract combined with BSA solution (BSA [6]): 2 percentage
- protein-bound cannabinoid quantified, Smoke (albumin (BSA)): 0.58
- protein-bound cannabinoid quantified, Vapor (albumin (BSA)): 1.43
- amount of cannabinoids dissolved in ethanol, Smoke [7]: 23.088 micrograms/ml
- amount of cannabinoids dissolved in ethanol, Vapor [7]: 28.7668 micrograms/ml

SMILES: CCCCCc1cc(O)c2c(c1)OC(C)(C)c1ccc(C)cc1-2 [CBN, cannabinol]
- active cannabinoids found by HPLC in BSA aqueous solution after cannabis smoke was introduced [1]: dissolved in the solution
- relative concentration of cannabinoids (relative to total cannabinoid content), Smoke passed through BSA/water/ethanol (BSA [2]; [8]): 0.0 percent (weight/weight)
- relative concentration of cannabinoids (relative to total cannabinoid content), Vapor passed through BSA/water/ethanol (BSA [2]; [8]): 0.0 percent (weight/weight)
- relative concentration of cannabinoids (relative to total cannabinoid content), Smoke passed through BSA/water/ethanol (BSA [2]; strain of cannabis high in THC): 0.0 percent (weight/weight)
- relative concentration of cannabinoids (relative to total cannabinoid content), Smoke passed through ethanol [3, 8]: 1.6 percent (weight/weight)
- relative concentration of cannabinoids (relative to total cannabinoid content), Vapor passed through ethanol [3, 8]: 0.0 percent (weight/weight)
- relative concentration of cannabinoids (relative to total cannabinoid content), Smoke passed through ethanol ([3]; strain of cannabis high in THC): 1.7 percent (weight/weight)
- relative concentration of cannabinoids (relative to total cannabinoid content), Vapor passed through ethanol ([3]; strain of cannabis high in THC): 1.6 percent (weight/weight)
- percentage of each cannabinoid relative to total cannabinoids adsorbed to protein, Bovine γ-globulin (bovine γ-globulin): 0 percentage
- percentage of each cannabinoid relative to total cannabinoids adsorbed to protein, Ovalbumin (ovalbumin (hen)): 0 percentage
- percentage of each cannabinoid relative to total cannabinoids adsorbed to protein, Rice recombinant HSA [4]: 0 percentage
- percentage of each cannabinoid relative to total cannabinoids, Extract [5]: 2 percentage
- percentage of each cannabinoid relative to total cannabinoids adsorbed to protein, Adsorbed to BSA after extract combined with BSA solution (BSA [6]): 2 percentage
- protein-bound cannabinoid quantified, Smoke (albumin (BSA)): 6.5
- protein-bound cannabinoid quantified, Vapor (albumin (BSA)): 4.855
- amount of cannabinoids dissolved in ethanol, Smoke [7]: 276.856 micrograms/ml
- amount of cannabinoids dissolved in ethanol, Vapor [7]: 135.5254 micrograms/ml

SMILES: CCCCCc1cc2c(c(O)c1C(=O)O)[C@@H]1C=C(C)CC[C@H]1C(C)(C)O2 [THCA, tetrahydrocannabinoic acid]
- active cannabinoids found by HPLC in BSA aqueous solution after cannabis smoke was introduced [1]: dissolved in the solution
- relative concentration of cannabinoids (relative to total cannabinoid content), Smoke passed through BSA/water/ethanol (BSA [2]; [8]): 5.3 percent (weight/weight)
- relative concentration of cannabinoids (relative to total cannabinoid content), Vapor passed through BSA/water/ethanol (BSA [2]; [8]): 0.0 percent (weight/weight)
- relative concentration of cannabinoids (relative to total cannabinoid content), Smoke passed through BSA/water/ethanol (BSA [2]; strain of cannabis high in THC): 9.3 percent (weight/weight)
- relative concentration of cannabinoids (relative to total cannabinoid content), Smoke passed through ethanol [3, 8]: 0.7 percent (weight/weight)
- relative concentration of cannabinoids (relative to total cannabinoid content), Vapor passed through ethanol [3, 8]: 0.3 percent (weight/weight)
- relative concentration of cannabinoids (relative to total cannabinoid content), Smoke passed through ethanol ([3]; strain of cannabis high in THC): 0.9 percent (weight/weight)
- relative concentration of cannabinoids (relative to total cannabinoid content), Vapor passed through ethanol ([3]; strain of cannabis high in THC): 1.1 percent (weight/weight)
- percentage of each cannabinoid relative to total cannabinoids adsorbed to protein, Bovine γ-globulin (bovine γ-globulin): 100 percentage
- percentage of each cannabinoid relative to total cannabinoids adsorbed to protein, Ovalbumin (ovalbumin (hen)): 0 percentage
- percentage of each cannabinoid relative to total cannabinoids adsorbed to protein, Rice recombinant HSA [4]: 0 percentage
- percentage of each cannabinoid relative to total cannabinoids, Extract [5]: 22 percentage
- percentage of each cannabinoid relative to total cannabinoids adsorbed to protein, Adsorbed to BSA after extract combined with BSA solution (BSA [6]): 29 percentage
- protein-bound cannabinoid quantified, Smoke (albumin (BSA)): 2.16
- protein-bound cannabinoid quantified, Vapor (albumin (BSA)): 4.26
- amount of cannabinoids dissolved in ethanol, Smoke [7]: 83.765 micrograms/ml
- amount of cannabinoids dissolved in ethanol, Vapor [7]: 72.8432 micrograms/ml
